“And” between values parts separate entries of the source, which are not always exact repeats. Equal values may be shown once. Read-outs that look alike come from different tables or passages of the source.
Columns and labels:
DBA1/J mice = assay: Collagen type II induced arthritis, therapeutic treatment (Example 2); format: in vivo; conditions: for Ankylosis score / Incidence of ankylosis (% of animals affected) / Incidence of arthritis (% of animals affected) / Mean Arthritic Score / Mean number of affected paws: treated day 30-49
Method: Male DBA1/J mice were immunized intradernally with collagen type II emulsified in complete Freund's Adjuvant on day 0 and day 21. Treatment of mice was started on day 30 (10 animals/treatment group; the animals were randomized so that both groups had similar arthritic symptoms at the start). Mice were treated orally with vehicle [DMSO: cremophor: 0.9% NaCl solution, 1:1:8 (v:v:v)] or compound 75 at a dose of 100 mg/kg. Three times per week symptoms of arthritis were scored. Animals were treated till day 49, at day 50 animals were sacrificed, blood was collected for analysis of anti-collagen antibodies, and […].
Trained lab personnel evaluated the severity and incidence of the arthritic symptoms at regular intervals without knowing which animals had received vehicle or drug.
In Table 14, the mean arthritic score is shown. For each paw, a score ranging from 0 (normal) to 2 (maximal redness and swelling) is given. The score for the 4 paws is summed up and averaged for the 10 animals per group (=Mean arthritic score).
Table 16 summarizes the results of the observations for the occurrence of ankylosis as the arthritis progresses. Each paw is scored as follows: 0 for no ankylosis, 1 for ankylosis. Again the results for the four paws are summed up and averaged for the 10 animals. Ankylosis starts to occur around day 30. During the whole treatment period, ankylosis is lower in the drug treated group than in the vehicle treated group.
In table 19, the radiographic score of the individual mice is depicted. For each paw, a score ranging from 0 (normal) to 2 (deformation of the whole paw was given. The scores of the four paws are summed up.

Lewis rats = format: in vivo; conditions: for % change in body-weight #<−21% / % change in body-weight #>10% / % change in body-weight Mean: day 14-21, 6 animals; for % change in swelling Mean / % change in swelling #<80% / % change in swelling #>170% / % change in swelling #>150%: paw swelling day 21 as % of day 14, 6 animals; for % change in swelling #<80%: criterion for anti-inflammatory activity; for % change in swelling #>170%: pro-inflammatory activity; for % change in swelling #>150%: tendency towards pro-inflammatory activity
Method: Male SPF-breeded Lewis rats (Charles River; 225-275 g) were housed in individual cages under standard laboratory conditions (21±2° C.; 65±15% relative humidity; light-dark cycle set at 12 h). Mycobacterium butyricum (heat-killed and suspended in paraffin oil at 5 mg/ml; 0.05 ml) was inoculated intradermally at the tail base of the rats. On day 14 after inoculation, the diameters (Ø) of the hind paws and tibiotarsal joints (ΣØ14) were compared with the initial diameters (ΣØ0) and rats with a significant swelling (ΔØ14-0≧6.0 mm) were assigned to the various treatment groups (n=6; […]).
Body weight and paw diameters were measured at days 14 and after 1-week treatment at day 21. Diet consumption was also measured and the number of dead animals on day 21 was noted. Paw swelling at day 21 was expressed as a percentage of the initial inflammation at the start of the treatment (day 14). Control animals were included in each experimental session. Test compounds were administered via a medicated diet. For that purpose, compounds were mixed with ground pellets in proportion to give an approximate daily dose. This medicated diet was administered ad libitum during the experimental period. The real dose was calculated by multiplying the consumed amount of diet with the concentration of the test compound in the diet.
Based on a frequency distribution of a series of control data (n=181), all-or-nothing criteria for drug-induced effects were established. The averaged body weight change during the 1 week experimental period in the control population was a decrease of 7 g. […] In the same set of control animals, paw swelling at day 21 was on the average 117% of the initial value at day 14.

[1] = 100 mg/kg orally from day 30, versus vehicle
[2] = day 22 after immunization, 100 mpk orally
[3] = day 24 after immunization, 100 mpk orally
[4] = day 28 after immunization, 100 mpk orally
[5] = day 29 after immunization, 100 mpk orally
[6] = day 31 after immunization, 100 mpk orally
[7] = day 34 after immunization, 100 mpk orally
[8] = day 36 after immunization, 100 mpk orally
[9] = day 38 after immunization, 100 mpk orally
[10] = day 41 after immunization, 100 mpk orally
[11] = day 43 after immunization, 100 mpk orally
[12] = day 45 after immunization, 100 mpk orally
[13] = day 48 after immunization, 100 mpk orally
[14] = day 50 after immunization, 100 mpk orally
[15] = dose 40 mg/kg via medicated diet
[16] = dose 80 mg/kg via medicated diet
[17] = dose 160 mg/kg via medicated diet

## Cn1cncc1C(N)(c1ccc(Cl)cc1)c1ccc2c(c1)c(-c1cccc(Cl)c1)cc(=O)n2C (single isomer, unassigned; (+)) [Compound 75, (+)-6-[amino(4-chlorophenyl)(1-methyl-1H-imidazol-5-yl)methyl]-4-(3-chlorophenyl)-1-methyl-2(1H)-quinolinone]
DBA1/J mice; [1]
  effect on mean arthritic score (in words): clearly suppresses the arthritic score
  effect on mean number of affected paws (in words): reduces that number
DBA1/J mice; 100 mg/kg orally, day 30-49
  lethalities: no lethalities were observed
  signs of toxicity: did not show any signs of toxicity
DBA1/J mice; average of 10 mice, 100 mpk orally, treated day 30-49, radiographs at day 50
  Radiographic score, Average: 2.3
DBA1/J mice; [2]
  Ankylosis score: 0.00
  Incidence of ankylosis (% of animals affected): 0%
  Incidence of arthritis (% of animals affected): 0%
  Mean Arthritic Score: 0.00
  Mean number of affected paws: 0.00
DBA1/J mice; [3]
  Ankylosis score: 0.00
  Incidence of ankylosis (% of animals affected): 0%
  Incidence of arthritis (% of animals affected): 10%
  Mean Arthritic Score: 0.03
  Mean number of affected paws: 0.10
DBA1/J mice; [4]
  Ankylosis score: 0.00
  Incidence of ankylosis (% of animals affected): 0%
  Incidence of arthritis (% of animals affected): 90%
  Mean Arthritic Score: 3.50
  Mean number of affected paws: 2.40
DBA1/J mice; [5]
  Ankylosis score: 0.00
  Incidence of ankylosis (% of animals affected): 0%
  Incidence of arthritis (% of animals affected): 100%
  Mean Arthritic Score: 4.25
  Mean number of affected paws: 2.70
DBA1/J mice; [6]
  Ankylosis score: 0.80
  Incidence of ankylosis (% of animals affected): 60%
  Incidence of arthritis (% of animals affected): 100%
  Mean Arthritic Score: 4.03
  Mean number of affected paws: 2.80
DBA1/J mice; [7]
  Ankylosis score: 2.50
  Incidence of ankylosis (% of animals affected): 90%
  Incidence of arthritis (% of animals affected): 100%
  Mean Arthritic Score: 3.80
  Mean number of affected paws: 2.60
DBA1/J mice; [8]
  Ankylosis score: 2.40
  Incidence of ankylosis (% of animals affected): 90%
  Incidence of arthritis (% of animals affected): 90%
  Mean Arthritic Score: 3.00
  Mean number of affected paws: 2.20
DBA1/J mice; [9]
  Ankylosis score: 2.60
  Incidence of ankylosis (% of animals affected): 100%
  Incidence of arthritis (% of animals affected): 90%
  Mean Arthritic Score: 3.20
  Mean number of affected paws: 2.60
DBA1/J mice; [10]
  Ankylosis score: 1.70
  Incidence of ankylosis (% of animals affected): 70%
  Incidence of arthritis (% of animals affected): 90%
  Mean Arthritic Score: 3.45
  Mean number of affected paws: 2.40
DBA1/J mice; [11]
  Ankylosis score: 2.20
  Incidence of ankylosis (% of animals affected): 80%
  Incidence of arthritis (% of animals affected): 90%
  Mean Arthritic Score: 2.15
  Mean number of affected paws: 2.20
DBA1/J mice; [12]
  Ankylosis score: 1.90
  Incidence of ankylosis (% of animals affected): 80%
  Incidence of arthritis (% of animals affected): 100%
  Mean Arthritic Score: 1.33
  Mean number of affected paws: 1.90
DBA1/J mice; [13]
  Ankylosis score: 2.10
  Incidence of ankylosis (% of animals affected): 90%
  Incidence of arthritis (% of animals affected): 60%
  Mean Arthritic Score: 1.58
  Mean number of affected paws: 1.50
DBA1/J mice; day 50 after immunization (end of the treatment period), 100 mpk orally
  Incidence of arthritis (% of animals affected): 60%
DBA1/J mice; [14]
  Ankylosis score: 0.80
  Incidence of ankylosis (% of animals affected): 40%
  Mean Arthritic Score: 0.88
  Mean number of affected paws: 1.20
DBA1/J mice; individual mouse, sum of four paws (0-2 each), 100 mpk orally, treated day 30-49, radiographs at day 50, 100 mg/kg
  Radiographic score of individual mice: 2.5 (2×) and 1.0 and 0.0 (2×) and 5.25 and 2.0 (2×) and 3.0 and 4.75
DBA1/J mice; median of 10 mice, 100 mpk orally, treated day 30-49, radiographs at day 50
  Radiographic score, Median: 2.25
DBA1/J mice; oral administration to mice with established arthritis
  arthritic symptoms (paw swelling, occurrence of ankylosis and deterioration of the joints as observed on radiographs): reduces the arthritic symptoms
Lewis rats; [15]
  % change in body-weight #<−21%: 0 number of animals
  % change in body-weight #>10%: 0 number of animals
  % change in body-weight Mean: −9%
  % change in swelling Mean: 94%
  % change in swelling #<80%: 0 number of animals
  % change in swelling #>170%: 0 number of animals
  % change in swelling #>150%: 0 number of animals
Lewis rats; [16]
  % change in body-weight #<−21%: 4 number of animals
  % change in body-weight #>10%: 0 number of animals
  % change in body-weight Mean: −19%
  % change in swelling Mean: 86%
  % change in swelling #<80%: 3 number of animals
  % change in swelling #>170%: 0 number of animals
  % change in swelling #>150%: 0 number of animals
Lewis rats; [17]
  % change in body-weight #<−21%: 4 number of animals
  % change in body-weight #>10%: 0 number of animals
  % change in body-weight Mean: −24%
  % change in swelling Mean: 79%
  % change in swelling #<80%: 3 number of animals
  % change in swelling #>170%: 0 number of animals
  % change in swelling #>150%: 0 number of animals

Source: patent publication US6451812B1, “Farnesyl protein transferase inhibitors for treating arthropathies” (Janssen Pharmaceutica N.V., priority 1998, dated 2002)
